Values of other authors in US6124328A, “Methods and compositions for stimulating neurite growth” (Vertex Pharmaceuticals Incorporated, priority 1997, dated 2000).

Key:
[1] = test system: PC12 rat pheochromocytoma cells; details: Lyons et al., cited from earlier work
[2] = test system: dorsal root ganglia (sensory ganglia); details: Lyons et al., cited from earlier work
ryanodine receptor (RyR) = details: cited from earlier work
[3] = test system: inositol 1,4,5-triphosphate receptor (IP3 R); details: cited from earlier work

Compound | neurite outgrowth (synergy with NGF) ([1]; with NGF, rat pheochromocytoma cell line) | neurotrophic effects in sensory ganglia [2] | dissociating FKBP12 from the receptor (ryanodine receptor (RyR)) | dissociating FKBP12 from the receptor [3] | effect on FK-506-induced neurite outgrowth ([1]; with FK-506) | neurotrophic effect in combination with FK-506 ([1]; with FK-506) | effect on FK-506 neurotrophic effects in sensory ganglia ([2]; with FK-506)
C=CC[C@@H]1/C=C(\C)C[C@H](C)C[C@H](OC)[C@H]2O[C@@](O)(C(=O)C(=O)N3CCCC[C@H]3C(=O)O[C@H](/C(C)=C/[C@@H]3CC[C@@H](O)[C@H](OC)C3)[C@H](C)[C@@H](O)CC1=O)[C@H](C)C[C@@H]2OC [FK-506] | acts synergistically with nerve growth factor (NGF) in stimulating neurite outgrowth | demonstrated similar neurotrophic effects | capable of dissociating FKBP12 from the receptor | capable of dissociating FKBP12 from the receptor |  |  | 
CO[C@H]1C[C@@H]2CC[C@@H](C)[C@@](O)(O2)C(=O)C(=O)N2CCCC[C@H]2C(=O)O[C@H]([C@H](C)C[C@@H]2CC[C@@H](O)[C@H](OC)C2)CC(=O)[C@H](C)/C=C(\C)[C@@H](O)[C@@H](OC)C(=O)[C@H](C)C[C@H](C)/C=C/C=C/C=C/1C [rapamycin] |  |  | capable of dissociating FKBP12 from the receptor | capable of dissociating FKBP12 from the receptor | did not inhibit the effects of FK-506 on neurite outgrowth | additive effect with FK-506 | those effects were blocked by rapamycin
